In US20220323594A1, “LIPIDATED CATIONIC PEPTIDE-PEG COMPOSITIONS FOR NUCLEIC ACID DELIVERY” (NUTCRACKER THERAPEUTICS, INC., priority 2019, published 2022):
Read-outs that look alike come from different tables or passages of the source.

Columns and labels:
[1] = Dynamic light scattering (DLS) of mRNA/peptoid formulations: particle size and polydispersity; assay type: physicochemical; conditions: Fluc mRNA/peptoid formulation; for Size PDI: size polydispersity index by DLS, 5:1 mass ratio; for Size (nm): volume average particle size/diameter by DLS, 5:1 mass ratio peptoid:cargo
Method: To prepare nanoparticle formulations, the amino lipidated peptoid is mixed by pipetting with nucleic acid at a mass ratio between approximately 1:1 (peptoid:cargo) and 20:1. Prior to formulation, amino lipidated peptoid and nucleic acid cargo were diluted in ethanol and acidic buffer (PBS adjusted to pH 5.5 with 0.1 M HCl) respectively to a volume ratio of 1:3 and to target a final cargo concentration of approximately 0.05 mg/mL to 0.2 mg/mL. The exemplary amino lipidated cationic peptoids described in Example 2 were combined with firefly luciferase (Fluc) mRNA to form nanoparticle compositions to be evaluated for therapeutic and/or prophylactic purposes in vitro or in vivo. The formulations were prepared according to the protocol of Example 3 and mixed by simple pipetting. The mRNA/peptoid formulation at a 5:1 mass ratio of peptoid:cargo were evaluated by dynamic light scattering (DLS) in order to determine the volume average particle size/diameter (nm) of the mRNA/peptoid complex and the size polydispersity index (PDI) within the formulation. The percentage of mRNA encapsulation for each formulation of the exemplary compounds were determined by fluorescence of the Qubit RNA HS (Invitrogen) dye before and after lysis of particles by Triton X-100.

[2] = mRNA encapsulation by fluorescence of Qubit RNA HS dye before and after lysis with Triton X-100; assay type: physicochemical; conditions: percentage of mRNA encapsulation; Fluc mRNA/peptoid formulation, 5:1 mass ratio
Method in brief: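 Encapsulation was measured by comparing Qubit RNA HS fluorescence of intact particles with that after Triton X-100 lysis. Particles were amino-lipidated cationic peptoids complexed with firefly luciferase mRNA at 5:1 peptoid:cargo by mass, mixed by pipetting.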

[3] = tested on: HeLa cells; experiment: In vitro expression of firefly luciferase (Fluc) after treatment with Fluc mRNA/amino lipidated peptoid formulations, no PEG or 2% DMG-PEG2000; assay type: cell-based
Method in brief: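 HeLa cells received 100 ng/well Fluc mRNA complexed with amino lipidated peptoid at 5:1 peptoid:mRNA (w/w), either peptoid alone or with 2% w/w DMG-PEG2000. Expression quantified as RLU by luminescence at 6 and 24 h.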

[4] = tested on: HeLa cells; experiment: In vitro Fluc expression with variable peptoid:mRNA mass ratio, 2% DMG-PEG2000; assay type: cell-based; conditions: 24 h; for Observed Luciferase Expression (RLU) for Given Formulation Mass Ratio 2:1: 2% (w/w) DMG-PEG2000, peptoid:mRNA 2:1; for Observed Luciferase Expression (RLU) for Given Formulation Mass Ratio 3.5:1: 2% (w/w) DMG-PEG2000, peptoid:mRNA 3.5:1; for Observed Luciferase Expression (RLU) for Given Formulation Mass Ratio 5:1: 2% (w/w) DMG-PEG2000, peptoid:mRNA 5:1; for Observed Luciferase Expression (RLU) for Given Formulation Mass Ratio 7.5:1: 2% (w/w) DMG-PEG2000, peptoid:mRNA 7.5:1
Method in brief: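 HeLa cells exposed 24 hours to amino lipidated peptoid/Fluc mRNA formulations containing 2% w/w DMG-PEG2000 (relative to peptoid), across peptoid:mRNA mass ratios of 2:1 to 7.5:1. Read-out: average luciferase bioluminescence (RLU).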

[5] = MTT viability assay after treatment with Fluc mRNA/amino lipidated peptoid formulations; assay type: cell-based; conditions: human, HeLa cells
Method in brief: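 Viability relative to untreated cells came from the formazan read-out after 2 h with 1.5 mg/mL MTT and acidic isopropanol/Triton lysis. The MTT step followed an 8 h exposure to 100 ng/well Fluc mRNA in 5:1 peptoid:mRNA, 2% DMG-PEG2000 formulations and a further 48 h of culture.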

[6] = no PEG, peptoid:Fluc mRNA 5:1 w/w, 100 ng/well, 6 h of treatment
[7] = no PEG, peptoid:Fluc mRNA 5:1 w/w, 100 ng/well, 24 h of treatment
[8] = with 2% (w/w) DMG-PEG2000, peptoid:mRNA 5:1, 6 h after treatment
[9] = with 2% (w/w) DMG-PEG2000, peptoid:mRNA 5:1, 24 h after treatment

Row | Compound | Size PDI [1] | Size (nm) [1] [nm] | % Encapsulation [2] [%] | Luciferase Expression (RLU) 6 h [3, 6] [RLU] | Luciferase Expression (RLU) 24 h [3, 7] [RLU] | Luciferase Expression (RLU) 6 h [3, 8] [RLU] | Luciferase Expression (RLU) 24 h [3, 9] [RLU] | Observed Luciferase Expression (RLU) for Given Formulation Mass Ratio 2:1 [4] [RLU] | Observed Luciferase Expression (RLU) for Given Formulation Mass Ratio 3.5:1 [4] [RLU] | Observed Luciferase Expression (RLU) for Given Formulation Mass Ratio 5:1 [4] [RLU] | Observed Luciferase Expression (RLU) for Given Formulation Mass Ratio 7.5:1 [4] [RLU] | viability at 8 h, 500 ng/well ([5]; Relative Viability (%) 2% PEG) [%] | viability at 8 h, 500 ng/well ([5]; Relative Viability (%) No PEG) [%] | viability at 8 h, 500 ng/well ([5]; MTT, 2% (w/w) DMG-PEG2000, 5:1 mass ratio, 100 ng/well mRNA for 8 h then 48 h growth, normalized to untreated cells, read-out: Relative Viability (%) 2% PEG) [%] | viability at 8 h, 500 ng/well ([5]; MTT, formulation alone (no PEG), 5:1 mass ratio, 100 ng/well mRNA for 8 h then 48 h growth, normalized to untreated cells, read-out: Relative Viability (%) No PEG) [%] | viability at 8 h, 500 ng/well ([5]; viability) [%]
1 | CCCCCCCCCCN(CC(N)=O)C(=O)CN(CCCCCCCCCC)C(=O)CN(CCCCCCCCCC)C(=O)CN(CCc1ccccc1)C(=O)CN(CCc1ccccc1)C(=O)CN(CCN)C(=O)CN(CCc1ccccc1)C(=O)CN(CCc1ccccc1)C(=O)CN(CCN)C(=O)CN(CCc1ccccc1)C(=O)CN(CCc1ccccc1)C(=O)CNCCN [Compound 7] | 0.177 | 296.7 | 88.4 | 6.45E+03 | 9.71E+03 | 2.77E+03 | 1.81E+03 | 1.61E+04 | 1.43E+04 | 2.20E+04 | 5.92E+03 | – | – | 96 | 78 | –
2 | CCCCCCCCCCN(CC(N)=O)C(=O)CN(CCCCCCCCCC)C(=O)CN(CCc1ccccc1)C(=O)CN(CCN)C(=O)CN(CCc1ccccc1)C(=O)CN(CCN)C(=O)CN(CCc1ccccc1)C(=O)CNCCN [Compound 13] | 0.447 | 822.6 | 90.4 | 3.67E+00 | 9.67E+00 | 3.27E+01 | 2.67E+00 | 2.68E+01 | 1.74E+01 | 1.39E+02 | 5.36E+00 | 85.9 | 90.2 | – | – | –
3 | CCCCCCCCCCN(CC(=O)N(CCN)CC(=O)N(CCc1ccccc1)CC(=O)N(CCc1ccccc1)CC(=O)N(CCCCCCCCCC)CC(=O)N(CCN)CC(=O)N(CCc1ccccc1)CC(=O)N(CCc1ccccc1)CC(N)=O)C(=O)CN(CCc1ccccc1)C(=O)CN(CCc1ccccc1)C(=O)CNCCN [Compound 17] | 0.37 | 472.8 | 90.3 | 6.84E+02 | 5.63E+02 | 8.67E+01 | 1.80E+02 | 2.72E+03 | 1.56E+03 | 1.60E+03 | 3.75E+01 | 91.7 | 88 | – | – | –
4 | CCCCCCCCCCCCCCCCCCN(CC(N)=O)C(=O)CN(CCCCCCCCCCCCCCCCCC)C(=O)CN(CCc1ccccc1)C(=O)CN(CCc1ccccc1)C(=O)CN(CCN)C(=O)CN(CCc1ccccc1)C(=O)CN(CCc1ccccc1)C(=O)CN(CCN)C(=O)CN(CCc1ccccc1)C(=O)CN(CCc1ccccc1)C(=O)CNCCN [Compound 5] | 0.308 | 364.7 | 88.3 | 9.60E+01 | 5.36E+02 | 3.46E+02 | 1.22E+02 | 5.81E+02 | 1.15E+03 | 9.21E+02 | 1.14E+03 | 91.2 | 56.8 | – | – | < 80

More lines, main results first:

Row | Size PDI [1] | Size (nm) [1] [nm] | % Encapsulation [2] [%] | Compound | Luciferase Expression (RLU) 6 h [3, 6] [RLU] | Luciferase Expression (RLU) 24 h [3, 7] [RLU] | Luciferase Expression (RLU) 6 h [3, 8] [RLU] | Luciferase Expression (RLU) 24 h [3, 9] [RLU] | Observed Luciferase Expression (RLU) for Given Formulation Mass Ratio 2:1 [4] [RLU] | Observed Luciferase Expression (RLU) for Given Formulation Mass Ratio 3.5:1 [4] [RLU] | Observed Luciferase Expression (RLU) for Given Formulation Mass Ratio 5:1 [4] [RLU] | Observed Luciferase Expression (RLU) for Given Formulation Mass Ratio 7.5:1 [4] [RLU] | viability at 8 h, 500 ng/well ([5]; Relative Viability (%) 2% PEG) [%] | viability at 8 h, 500 ng/well ([5]; Relative Viability (%) No PEG) [%] | viability at 8 h, 500 ng/well ([5]; MTT, 2% (w/w) DMG-PEG2000, 5:1 mass ratio, 100 ng/well mRNA for 8 h then 48 h growth, normalized to untreated cells, read-out: Relative Viability (%) 2% PEG) [%] | viability at 8 h, 500 ng/well ([5]; MTT, formulation alone (no PEG), 5:1 mass ratio, 100 ng/well mRNA for 8 h then 48 h growth, normalized to untreated cells, read-out: Relative Viability (%) No PEG) [%] | viability at 8 h, 500 ng/well ([5]; viability) [%]
5 | 0.538 | 748.2 | 65.4 | CCCCCCCCCCN(CC(N)=O)C(=O)CN(CCCCCCCCCC)C(=O)CN(CCCCCCCCCC)C(=O)CN(CCCCCCCCCC)C(=O)CN(CCCCCCCCCC)C(=O)CN(CCCCCCCCCC)C(=O)CN(CCc1ccccc1)C(=O)CN(CCc1ccccc1)C(=O)CN(CCN)C(=O)CN(CCc1ccccc1)C(=O)CN(CCc1ccccc1)C(=O)CN(CCN)C(=O)CN(CCc1ccccc1)C(=O)CN(CCc1ccccc1)C(=O)CNCCN [Compound 22] | 6.63E+01 | 6.77E+01 | 9.23E+01 | 2.13E+01 | 3.53E+01 | 8.83E+01 | 2.50E+02 | 5.80E+02 | 118 | 104 | – | – | –
6 | 0.127 | 374.4 | 71.5 | CCCCCCCCCCN(CC(N)=O)C(=O)CN(CCCCCCCCCC)C(=O)CN(CCc1ccccc1)C(=O)CN(CCc1ccccc1)C(=O)CN(CC1CCCN1)C(=O)CN(CCc1ccccc1)C(=O)CN(CCc1ccccc1)C(=O)CN(CC1CCCN1)C(=O)CN(CCc1ccccc1)C(=O)CN(CCc1ccccc1)C(=O)CNCC1CCCN1 (stereo not drawn) [Compound 36] | 9.34E+03 | 7.78E+03 | 3.36E+02 | 7.45E+02 | 9.24E+02 | 4.18E+02 | 5.17E+02 | 6.71E+02 | 108 | 93.6 | – | – | –
7 | 0.606 | 438.7 | 50.9 | CCCCCCCCCCN(CC(N)=O)C(=O)CN(CCCCCCCCCC)C(=O)CN(CCc1ccccc1)C(=O)CN(CCc1ccccc1)C(=O)CN(CCNC)C(=O)CN(CCc1ccccc1)C(=O)CN(CCc1ccccc1)C(=O)CN(CCNC)C(=O)CN(CCc1ccccc1)C(=O)CN(CCc1ccccc1)C(=O)CNCCNC [Compound 27] | 9.88E+02 | 7.40E+02 | 3.13E+02 | 6.36E+02 | 6.27E+03 | 8.40E+02 | 8.69E+02 | 6.41E+02 | 91.1 | 93.9 | – | – | –
8 | 0.404 | 348.5 | 35.7 | CCCCCCCCCCN(CC(N)=O)C(=O)CN(CCCCCCCCCC)C(=O)CN(CCCCCCCCCC)C(=O)CN(CCCCCCCCCC)C(=O)CN(CCc1ccccc1)C(=O)CN(CCc1ccccc1)C(=O)CN(CC1CCNCC1)C(=O)CN(CCc1ccccc1)C(=O)CN(CCc1ccccc1)C(=O)CN(CC1CCNCC1)C(=O)CN(CCc1ccccc1)C(=O)CN(CCc1ccccc1)C(=O)CNCC1CCNCC1 [Compound 31] | 5.84E+02 | 2.93E+03 | 4.30E+02 | 2.63E+02 | 2.07E+02 | 5.70E+02 | 3.77E+03 | 2.05E+03 | 98.4 | 83.8 | – | – | –
